Results reported in ChEMBL document CHEMBL3991601, “The target landscape of clinical kinase drugs” (Science, 2017).
Activity calls are given as the source filed them. Rule as the data show it, for most assays here: actives have a measured Kd and inactives only a lower limit.

Experiments:
[1] = target: T1, Discoidin domain-containing receptor 2 (Homo sapiens, UniProt Q16832)
T1 sequence (Q16832 whole entry): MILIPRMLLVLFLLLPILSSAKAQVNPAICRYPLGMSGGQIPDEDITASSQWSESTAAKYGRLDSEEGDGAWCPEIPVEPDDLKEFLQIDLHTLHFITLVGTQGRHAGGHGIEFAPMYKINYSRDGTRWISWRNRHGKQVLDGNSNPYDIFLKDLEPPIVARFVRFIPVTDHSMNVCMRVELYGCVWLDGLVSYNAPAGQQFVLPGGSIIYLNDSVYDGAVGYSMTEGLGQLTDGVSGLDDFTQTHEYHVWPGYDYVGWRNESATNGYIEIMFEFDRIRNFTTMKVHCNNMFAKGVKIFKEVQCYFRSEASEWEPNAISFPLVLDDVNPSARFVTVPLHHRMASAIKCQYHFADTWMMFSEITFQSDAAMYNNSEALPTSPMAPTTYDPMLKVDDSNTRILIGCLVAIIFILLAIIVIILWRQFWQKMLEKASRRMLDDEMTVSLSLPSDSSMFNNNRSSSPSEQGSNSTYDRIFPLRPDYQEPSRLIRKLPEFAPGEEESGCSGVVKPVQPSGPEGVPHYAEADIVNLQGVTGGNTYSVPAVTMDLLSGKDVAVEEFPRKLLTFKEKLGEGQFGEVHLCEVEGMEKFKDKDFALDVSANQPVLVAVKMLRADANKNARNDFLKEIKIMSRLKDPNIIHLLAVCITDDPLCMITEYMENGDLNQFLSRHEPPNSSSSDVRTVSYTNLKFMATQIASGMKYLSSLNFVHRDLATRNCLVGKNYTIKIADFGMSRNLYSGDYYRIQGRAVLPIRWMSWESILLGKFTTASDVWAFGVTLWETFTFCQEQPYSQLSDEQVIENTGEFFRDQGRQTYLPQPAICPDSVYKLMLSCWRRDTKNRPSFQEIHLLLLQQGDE

[2] = target: DnaJ homolog subfamily A member 1 (Homo sapiens, UniProt P31689)
Chain of DnaJ homolog subfamily A member 1 (P31689 whole entry): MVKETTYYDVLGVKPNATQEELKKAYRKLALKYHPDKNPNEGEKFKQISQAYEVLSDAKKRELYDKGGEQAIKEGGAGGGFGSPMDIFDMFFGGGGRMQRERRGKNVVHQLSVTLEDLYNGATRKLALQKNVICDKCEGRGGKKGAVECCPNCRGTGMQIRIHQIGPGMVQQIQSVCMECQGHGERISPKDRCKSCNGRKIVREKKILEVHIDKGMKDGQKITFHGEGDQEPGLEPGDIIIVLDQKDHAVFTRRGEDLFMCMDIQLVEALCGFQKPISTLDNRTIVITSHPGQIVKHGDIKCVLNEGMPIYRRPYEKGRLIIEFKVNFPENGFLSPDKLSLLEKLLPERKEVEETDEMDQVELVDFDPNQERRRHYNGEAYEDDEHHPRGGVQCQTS

[3] = target: Tyrosine-protein kinase Fyn (Homo sapiens, UniProt P06241)
Chain of Tyrosine-protein kinase Fyn (P06241 whole entry): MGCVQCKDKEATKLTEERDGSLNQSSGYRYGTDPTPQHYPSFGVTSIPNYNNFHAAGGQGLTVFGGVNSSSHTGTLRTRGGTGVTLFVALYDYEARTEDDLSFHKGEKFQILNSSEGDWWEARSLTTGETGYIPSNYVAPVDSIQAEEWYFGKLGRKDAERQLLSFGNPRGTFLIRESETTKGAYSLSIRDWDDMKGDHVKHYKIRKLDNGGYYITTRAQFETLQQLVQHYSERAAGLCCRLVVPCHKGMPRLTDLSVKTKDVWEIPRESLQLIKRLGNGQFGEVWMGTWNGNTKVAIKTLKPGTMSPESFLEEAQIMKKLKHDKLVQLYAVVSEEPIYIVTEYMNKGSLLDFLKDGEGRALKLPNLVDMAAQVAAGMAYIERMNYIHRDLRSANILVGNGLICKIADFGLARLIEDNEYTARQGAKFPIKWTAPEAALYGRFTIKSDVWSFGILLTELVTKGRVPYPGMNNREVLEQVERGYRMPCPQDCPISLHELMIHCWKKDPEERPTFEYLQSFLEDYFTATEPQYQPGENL

[4] = target: Mitogen-activated protein kinase 10 (Homo sapiens, UniProt P53779)
Chain of Mitogen-activated protein kinase 10 (P53779 whole entry): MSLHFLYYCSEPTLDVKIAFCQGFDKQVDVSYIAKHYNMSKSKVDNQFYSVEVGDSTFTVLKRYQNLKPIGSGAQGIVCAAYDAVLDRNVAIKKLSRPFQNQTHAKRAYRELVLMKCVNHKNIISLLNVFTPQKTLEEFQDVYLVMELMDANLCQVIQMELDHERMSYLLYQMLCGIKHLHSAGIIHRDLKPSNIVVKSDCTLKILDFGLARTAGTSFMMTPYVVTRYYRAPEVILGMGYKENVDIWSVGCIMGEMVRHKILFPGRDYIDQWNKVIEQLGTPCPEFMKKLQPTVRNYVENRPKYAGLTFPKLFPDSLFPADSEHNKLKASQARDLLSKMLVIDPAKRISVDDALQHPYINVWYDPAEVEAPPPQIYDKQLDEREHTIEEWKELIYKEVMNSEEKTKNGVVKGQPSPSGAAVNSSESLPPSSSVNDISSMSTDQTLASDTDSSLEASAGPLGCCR

[5] = target: Mitogen-activated protein kinase 8 (Homo sapiens, UniProt P45983)
Chain of Mitogen-activated protein kinase 8 (P45983 whole entry): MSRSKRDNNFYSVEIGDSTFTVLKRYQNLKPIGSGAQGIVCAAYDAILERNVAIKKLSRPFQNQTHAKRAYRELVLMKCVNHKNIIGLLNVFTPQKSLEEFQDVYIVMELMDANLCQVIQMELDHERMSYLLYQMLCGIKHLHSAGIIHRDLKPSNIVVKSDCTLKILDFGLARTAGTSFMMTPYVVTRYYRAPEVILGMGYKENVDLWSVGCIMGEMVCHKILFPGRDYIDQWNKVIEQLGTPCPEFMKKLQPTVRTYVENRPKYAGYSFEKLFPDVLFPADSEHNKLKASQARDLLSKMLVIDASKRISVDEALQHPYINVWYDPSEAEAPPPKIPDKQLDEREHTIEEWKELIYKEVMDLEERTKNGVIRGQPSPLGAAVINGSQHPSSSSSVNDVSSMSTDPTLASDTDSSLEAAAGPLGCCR

[6] = target: T2, MAP/microtubule affinity-regulating kinase 4 (Homo sapiens, UniProt Q96L34)
T2 sequence (Q96L34 whole entry): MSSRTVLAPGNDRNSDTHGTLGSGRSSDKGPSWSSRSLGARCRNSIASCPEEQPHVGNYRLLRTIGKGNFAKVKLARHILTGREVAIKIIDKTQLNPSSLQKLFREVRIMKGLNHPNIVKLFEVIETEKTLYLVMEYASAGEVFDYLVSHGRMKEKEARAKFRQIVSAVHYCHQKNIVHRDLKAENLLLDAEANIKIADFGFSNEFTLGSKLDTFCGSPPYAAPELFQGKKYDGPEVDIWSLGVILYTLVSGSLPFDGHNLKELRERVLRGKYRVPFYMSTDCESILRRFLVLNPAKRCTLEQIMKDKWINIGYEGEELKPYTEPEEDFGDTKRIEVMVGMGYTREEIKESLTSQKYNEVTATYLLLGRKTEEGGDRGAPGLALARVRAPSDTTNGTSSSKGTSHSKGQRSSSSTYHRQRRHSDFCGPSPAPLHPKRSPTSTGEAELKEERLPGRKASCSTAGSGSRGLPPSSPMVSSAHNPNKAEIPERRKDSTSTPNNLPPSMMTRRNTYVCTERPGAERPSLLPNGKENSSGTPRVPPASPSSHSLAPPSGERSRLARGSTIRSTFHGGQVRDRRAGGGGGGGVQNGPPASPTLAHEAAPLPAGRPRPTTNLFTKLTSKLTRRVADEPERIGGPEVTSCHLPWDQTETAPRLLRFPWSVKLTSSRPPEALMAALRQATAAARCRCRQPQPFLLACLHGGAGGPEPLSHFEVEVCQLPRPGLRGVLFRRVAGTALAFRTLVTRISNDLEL

[7] = target: T3, Serine/threonine-protein kinase Nek3 (Homo sapiens, UniProt P51956)
T3 sequence (P51956 whole entry): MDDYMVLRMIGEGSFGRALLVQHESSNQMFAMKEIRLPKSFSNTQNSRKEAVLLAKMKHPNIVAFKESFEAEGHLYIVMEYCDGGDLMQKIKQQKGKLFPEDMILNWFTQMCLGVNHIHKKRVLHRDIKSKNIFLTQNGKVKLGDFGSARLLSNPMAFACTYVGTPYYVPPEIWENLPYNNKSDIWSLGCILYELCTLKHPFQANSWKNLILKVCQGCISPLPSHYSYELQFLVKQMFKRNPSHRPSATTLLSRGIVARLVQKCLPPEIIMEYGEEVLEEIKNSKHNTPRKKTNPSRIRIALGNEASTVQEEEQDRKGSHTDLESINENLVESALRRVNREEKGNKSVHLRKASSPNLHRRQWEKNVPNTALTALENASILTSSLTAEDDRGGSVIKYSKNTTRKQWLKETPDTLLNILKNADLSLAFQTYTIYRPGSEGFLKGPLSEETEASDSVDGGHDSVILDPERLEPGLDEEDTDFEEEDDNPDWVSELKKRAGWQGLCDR

[8] = target: Receptor-interacting serine/threonine-protein kinase 2 (Homo sapiens, UniProt O43353)
Chain of Receptor-interacting serine/threonine-protein kinase 2 (O43353 whole entry): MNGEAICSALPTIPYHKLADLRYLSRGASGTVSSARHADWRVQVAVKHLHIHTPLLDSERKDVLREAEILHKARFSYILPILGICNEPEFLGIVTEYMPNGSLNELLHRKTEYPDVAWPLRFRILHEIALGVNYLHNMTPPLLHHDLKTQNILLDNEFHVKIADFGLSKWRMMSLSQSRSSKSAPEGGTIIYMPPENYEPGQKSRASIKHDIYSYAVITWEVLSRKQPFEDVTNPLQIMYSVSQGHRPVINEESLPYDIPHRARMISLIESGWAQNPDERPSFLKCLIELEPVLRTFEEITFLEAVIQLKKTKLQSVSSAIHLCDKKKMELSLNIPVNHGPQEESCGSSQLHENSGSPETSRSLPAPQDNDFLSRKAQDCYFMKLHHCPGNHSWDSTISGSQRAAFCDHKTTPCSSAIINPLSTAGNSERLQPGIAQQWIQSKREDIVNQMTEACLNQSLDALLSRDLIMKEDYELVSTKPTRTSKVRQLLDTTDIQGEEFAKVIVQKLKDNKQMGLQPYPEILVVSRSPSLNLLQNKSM

ADP/ATP translocase 2 = target: T4, ADP/ATP translocase 2 (Homo sapiens, UniProt P05141)
T4 sequence (P05141 whole entry): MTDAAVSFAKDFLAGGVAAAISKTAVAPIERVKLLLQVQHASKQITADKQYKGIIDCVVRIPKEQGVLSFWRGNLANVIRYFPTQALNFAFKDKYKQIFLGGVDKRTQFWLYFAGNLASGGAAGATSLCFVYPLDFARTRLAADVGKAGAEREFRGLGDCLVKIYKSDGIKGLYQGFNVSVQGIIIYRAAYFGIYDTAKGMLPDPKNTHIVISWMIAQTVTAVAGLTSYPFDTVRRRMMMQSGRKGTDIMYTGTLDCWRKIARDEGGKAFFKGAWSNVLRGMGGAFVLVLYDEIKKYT

Measured: Kd
Also: in the data inactive means no Kd found up to 30 µM.

CCn1c(=O)c(-c2cc[nH]n2)cc2c(C)nc(N)nc21 [VOXTALISIB]
inactive: [1] > 30 µM | [2] > 30 µM | [3] > 30 µM | [4] > 30 µM | [5] > 30 µM | [6] > 30 µM | [7] > 30 µM | [8] > 30 µM | ADP/ATP translocase 2 > 30 µM

Cc1ccc(NC(=O)c2ccc(CN3CC[C@H](N(C)C)C3)c(C(F)(F)F)c2)cc1Nc1nccc(-c2cncnc2)n1 [BAFETINIB]
active: [1] 0.048 µM | [3] 1.44 µM | [8] 1.47 µM
inactive: [2] > 30 µM | [4] > 30 µM | [5] > 30 µM | [6] > 30 µM | [7] > 30 µM | ADP/ATP translocase 2 > 30 µM

COc1ccc(-c2ccc3c(N4CCOC[C@@H]4C)nc(N4CCOC[C@@H]4C)nc3n2)cc1CO [AZD-8055]
inactive: [1] > 30 µM | [2] > 30 µM | [3] > 30 µM | [4] > 30 µM | [5] > 30 µM | [6] > 30 µM | [7] > 30 µM | [8] > 30 µM | ADP/ATP translocase 2 > 30 µM

Cn1cc(-c2ccc(F)c(C(F)(F)F)c2)nc1C1CCN(c2ncnc3[nH]ncc23)CC1 [LY-2584702]
inactive: [1] > 30 µM | [2] > 30 µM | [3] > 30 µM | [4] > 30 µM | [5] > 30 µM | [6] > 30 µM | [7] > 30 µM | [8] > 30 µM | ADP/ATP translocase 2 > 30 µM

CNC(=O)CN1CCC(Oc2cc3c(Nc4cccc(Cl)c4F)ncnc3cc2OC)CC1 [SAPITINIB]
active: [8] 0.751 µM
inactive: [1] > 30 µM | [2] > 30 µM | [3] > 30 µM | [4] > 30 µM | [5] > 30 µM | [6] > 30 µM | [7] > 30 µM | ADP/ATP translocase 2 > 30 µM

COc1cc(CCc2cc(NC(=O)c3ccc(N4C[C@@H](C)N[C@@H](C)C4)cc3)n[nH]2)cc(OC)c1 [AZD-4547]
active: [1] 12.9 µM
inactive: [2] > 30 µM | [3] > 30 µM | [4] > 30 µM | [5] > 30 µM | [6] > 30 µM | [7] > 30 µM | [8] > 30 µM | ADP/ATP translocase 2 > 30 µM

CNC(=O)c1ccc(C)c(-n2c(C)cc(OCc3ccc(F)cc3F)c(Br)c2=O)c1 [PH-797804]
inactive: [1] > 30 µM | [2] > 30 µM | [3] > 30 µM | [4] > 30 µM | [5] > 30 µM | [6] > 30 µM | [7] > 30 µM | [8] > 30 µM | ADP/ATP translocase 2 > 30 µM

COCCNCc1ccc(-c2cc3nccc(Oc4ccc(NC(=S)NC(=O)Cc5ccc(F)cc5)cc4F)c3s2)nc1 [GLESATINIB]
inactive: [2] > 30 µM | [4] > 30 µM | [5] > 30 µM | [6] > 30 µM | [7] > 30 µM | [8] > 30 µM | ADP/ATP translocase 2 > 30 µM
active: [1] 1.49 µM | [3] 1.24 µM

CCN1CCN(Cc2ccc(-c3cc4c(N[C@H](C)c5ccccc5)ncnc4[nH]3)cc2)CC1 [AEE-788]
inactive: [2] > 30 µM | [3] > 30 µM | [4] > 30 µM | [5] > 30 µM | [6] > 30 µM | [8] > 30 µM | ADP/ATP translocase 2 > 30 µM
active: [1] 28.2 µM | [7] 38.1 µM

CN1CC[C@@H](c2c(O)cc(O)c3c(=O)cc(-c4ccccc4Cl)oc23)[C@@H]1CO
inactive: [1] > 30 µM | [2] > 30 µM | [3] > 30 µM | [4] > 30 µM | [5] > 30 µM | [6] > 30 µM | [7] > 30 µM | [8] > 30 µM | ADP/ATP translocase 2 > 30 µM

COc1cc(OC)c(/C=C/S(=O)(=O)Cc2ccc(OC)c(NCC(=O)O)c2)c(OC)c1 [RIGOSERTIB]
inactive: [1] > 30 µM | [2] > 30 µM | [3] > 30 µM | [4] > 30 µM | [5] > 30 µM | [6] > 30 µM | [7] > 30 µM | [8] > 30 µM | ADP/ATP translocase 2 > 30 µM

C1=C/COCc2cc(ccc2OCCN2CCCC2)Nc2nccc(n2)-c2cccc(c2)COC/1 [PACRITINIB]
inactive: [1] > 30 µM | [2] > 30 µM | [3] > 30 µM | [4] > 30 µM | [6] > 30 µM | [7] > 30 µM | [8] > 30 µM | ADP/ATP translocase 2 > 30 µM
active: [5] 1.96 µM

CNC(=O)c1ccc(-c2cnc3ncc(Cc4ccc5ncccc5c4)n3n2)cc1F [CAPMATINIB]
inactive: [1] > 30 µM | [2] > 30 µM | [3] > 30 µM | [4] > 30 µM | [5] > 30 µM | [6] > 30 µM | [7] > 30 µM | [8] > 30 µM | ADP/ATP translocase 2 > 30 µM

CC[C@@H]1C(=O)N(C)c2cnc(Nc3ccc(C(=O)N[C@H]4CC[C@H](N5CCN(CC6CC6)CC5)CC4)cc3OC)nc2N1C(C)C [VOLASERTIB]
active: [7] 2.96 µM
inactive: [1] > 30 µM | [2] > 30 µM | [3] > 30 µM | [4] > 30 µM | [5] > 30 µM | [6] > 30 µM | [8] > 30 µM | ADP/ATP translocase 2 > 30 µM

Cc1cc2c(F)c(Oc3ncnn4cc(OC[C@@H](C)OC(=O)[C@H](C)N)c(C)c34)ccc2[nH]1 [BRIVANIB ALANINATE]
inactive: [1] > 30 µM | [2] > 30 µM | [3] > 30 µM | [4] > 30 µM | [5] > 30 µM | [6] > 30 µM | [7] > 30 µM | [8] > 30 µM | ADP/ATP translocase 2 > 30 µM
